Data taken from PubChem BioAssay AID489022 (Sanford-Burnham Center for Chemical Genomics, 2010).
Where “and” joins values, the source holds several entries; their conditions need not be identical. Equal entries are not always repeated. Calls of active or inactive are those of the source. How the calls were made is not given here.

The compounds below were run on HEK-293T NF-kB luciferase reporter, luminescence counterscreen (assay: inhibitors of NF-kB luciferase reporter, HEK-293T, dose response, counter-screen for BCR NF-kB inhibitor project, luminescence, B-cell screen hits (AID 489022)).
For `CC(=C\c1ccccc1)/C=C1/SC(=O)N(CCCC(=O)Nc2ccc(C(=O)O)cc2)C1=O`, the IC50 was > 80 µM (inactive).
`CCc1ccc(-c2nc(CSCC(=O)NC3CC3)c(C)o2)cc1` was tested, and the IC50 was 30.5 µM (inactive).
Compound `COC(=O)CSc1nnc(-c2sc3ccccc3c2Cl)o1` has an IC50 of 7.24 µM.
`O=C(CN1C(=O)c2ccccc2S1(=O)=O)N1CCc2ccccc21` was tested, and the IC50 was 0.897 µM.
For `CC(C)(O)/C=C/C(=O)[C@](C)(O)C1[C@H](O)C[C@@]2(C)C3CC=C4C(C[C@H](O)[C@@H](O)C4(C)C)[C@]3(C)C(=O)C[C@]12C` (stereo partly drawn), the IC50 was 65.8 µM (inactive).
In the case of `COc1cc(C(=O)Nc2cc(C)c(OCC(=O)N3CCOCC3)c(C)c2)cc(OC)c1OC`, the IC50 is reported as > 80 µM (inactive).
For `Cc1ccc(O)c(NC(=O)COc2cc(C)ccc2C)c1`, the IC50 was > 80 µM (inactive).
`Cc1ccc(CSc2nnc(SCC(=O)N/N=C/C=C/c3ccccc3[N+](=O)[O-])s2)cc1` was tested, and the IC50 was 34.8 µM (inactive).
With `CSc1ccc(-c2nc(CSCC(=O)NC3CC3)c(C)o2)cc1` the IC50 was 37.7 µM (inactive).
With `CCc1cccc(NC(=O)c2ccc(CNc3c(N4CCCC4)c(=O)c3=O)cc2)c1` the IC50 was > 80 µM (inactive).
In the case of `COc1ccc(-n2c(-c3ccc(Cl)cc3)c[n+]3c2CCc2ccccc2-3)cc1`, the IC50 is reported as 3.18 µM.
With `CC1Cc2ccccc2N1S(=O)(=O)c1cnc(Cl)c(Cl)c1` (stereo not drawn) the IC50 was 77.8 µM (inactive).
In the case of `O=C(Nc1ccccc1C(=O)Nc1nnc(C(F)(F)F)s1)c1ccccc1`, the IC50 is reported as 4.36 µM.
`CCC(C)[C@H](N)c1nnc(SCC(=O)c2ccc(Cl)cc2)o1` (stereo partly drawn) was tested, and the IC50 was > 80 µM (inactive).
With `CCNc1nc(C)c2cc(Br)c(=O)n(CC)c2n1` the IC50 was > 80 µM (inactive).
With `CC(C)(C)c1ccc(-c2noc(CCC(=O)N3CCOCC3)n2)cc1` the IC50 was 35 µM (inactive).
For `O=C(CCCN1C(=O)/C(=C/c2ccccc2Cl)SC1=S)NNC(=O)c1ccccc1`, the IC50 was 21.8 µM (inactive).
`O=C(O)CCSc1ncnc2sc(-c3ccccc3)cc12` gave an IC50 of 11.8 µM.
`N=c1c(C(=O)NC2CCCC2)cc2c(=O)n3ccccc3nc2n1CCN1CCOCC1` was tested, and the IC50 was > 80 µM (inactive).
`CC(C)(C)c1ccc(-c2nnc(SCC(=O)NC3CC3)o2)cc1` was tested, and the IC50 was 63.1 µM (inactive).
Compound `O=C(O)CCSc1nc2ccccc2s1` has an IC50 of 2.07 µM.
Compound `Cc1ccc(/C=C2\SC(=S)N(CCCC(=O)NNC(=O)c3ccccc3O)C2=O)cc1` has an IC50 of 5.48 µM.
`CC1CC(C)(C)Nc2ccc(OC(=O)c3ccco3)cc21` (stereo not drawn) showed an IC50 of 8.89 µM.
For `CC1(c2nnc(-c3cccc(Cl)c3)o2)CC(c2cccc(Cl)c2)=NO1` (stereo not drawn), the IC50 was 29.9 µM (inactive).
For `CCn1c(=O)cc(SCC(=O)N2CCOCC2)c2ccccc21`, the IC50 was > 80 µM (inactive).
Work on `CCOC(=O)Cc1ccc(NC(=O)c2ccc(C(C)(C)C)cc2)cc1` yielded an IC50 of 1.04 µM.
In the case of `COC(=O)c1cc(NC(=O)Nc2cc(OC)ccc2OC)cc(C(=O)OC)c1`, the IC50 is reported as > 80 µM (inactive).
In the case of `CNC(=O)CCc1nc(-c2ccc(C(C)(C)C)cc2)no1`, the IC50 is reported as 56.4 µM (inactive).
`CN1CCN(C(=O)c2ccccc2N(Cc2ccccc2)S(=O)(=O)c2ccccc2)CC1` was tested, and the IC50 was 45.4 µM (inactive).
In the case of `Oc1cc(O)cc(-c2cc3ccc(O)cc3o2)c1`, the IC50 is reported as > 80 µM (inactive).
In the case of `CCCN1C(=O)/C(=C/c2c(N3CCNC(=O)C3CC(=O)OCC)nc3c(C)cccn3c2=O)SC1=S` (stereo not drawn), the IC50 is reported as 14.5 µM.
In the case of `COc1cc(-c2nc3ccc(N4CCN(C)CC4)cc3[nH]2)cc(OC)c1OC`, the IC50 is reported as > 80 µM (inactive).
`CCN(CC)CCOC(=O)c1ccc(NC(=O)CCCN2C(=O)S/C(=C/c3ccc(OC)cc3)C2=S)cc1` gave an IC50 of 11.6 µM.
For `COc1ccc(-c2nsc(SCC(=O)Nc3cc(C)on3)n2)cc1`, the IC50 was > 80 µM (inactive).
`CCC(CC)C(=O)Nc1ccc(Sc2ccc([N+](=O)[O-])cc2)cc1` gave an IC50 of 13.7 µM.
For `NNC(=O)COc1ccc(-c2nccc(-c3ccc(F)cc3)n2)cc1`, the IC50 was 42.3 µM (inactive).
In the case of `COc1ccc(NC(=S)NCc2ccccc2)c(OC)c1`, the IC50 is reported as > 80 µM (inactive).
With `COc1cc(NC(=O)c2cc3c(C)nc4ccccc4c3o2)cc(OC)c1OC` the IC50 was 18.4 µM.
In the case of `CCOc1ccc(-c2cc(CCCC(=O)NCc3ccc(C)cc3)no2)cc1`, the IC50 is reported as 70.9 µM (inactive).
`CNC(=O)c1cc(Nc2nnc(-c3ccc(O)cc3)c3ccccc23)ccc1OC` was tested, and the IC50 was > 80 µM (inactive).
In the case of `CCn1c(=O)cc(OCC(=O)Nc2ccc(OC)c(OC)c2)c2ccccc21`, the IC50 is reported as 70.3 µM (inactive).
`O=C(CN1C(=O)c2ccccc2S1(=O)=O)c1ccc(Cl)cc1Cl` was tested, and the IC50 was 17.9 µM.
`N=c1c2c(n(Cc3ccc(Cl)c(Cl)c3)c3c1CCC3)CCCC2` gave an IC50 of 2.35 µM.
For `O=C(CCCN1C(=O)S/C(=C/C=C/c2ccccc2)C1=O)Nc1ccc(C(=O)O)cc1`, the IC50 was > 80 µM (inactive).
`CCOC(=O)C(=CNc1cc(C)ccc1C)C(=O)OCC` showed an IC50 of 18.9 µM.
Work on `COc1cc(C[C@@H]2C(=O)OC[C@H]2Cc2ccc(OC)c(OC)c2)ccc1O` yielded an IC50 of 0.66 µM.
In the case of `CCc1ccc(/C=C2/SC(=S)N(CCC(=O)Nc3ccc(C(=O)O)cc3)C2=O)cc1`, the IC50 is reported as > 80 µM (inactive).
In the case of `CCN(CC)c1ccc(/C=N/N=C(c2ccccc2)c2ccccc2)c(O)c1`, the IC50 is reported as > 80 µM (inactive).
`Cc1ccc(NC(=O)O/N=C/c2c(C)nn(C(C)(C)C)c2C)cc1Cl` showed an IC50 of under 0.16 µM.
In the case of `COCCCn1c(=O)/c(=C\c2cccc(OC)c2OC)s/c1=C(/C#N)C(=O)Nc1ccc(C(=O)O)cc1`, the IC50 is reported as 34.1 µM (inactive).
`Cc1ccc(C(=O)OCC(=O)N(CC(C)C)c2c(N)n(Cc3ccccc3)c(=O)[nH]c2=O)o1` was tested, and the IC50 was > 80 µM (inactive).
For `CCCOc1ccc(NC(=O)C(=O)NCCCn2ccnc2)cc1`, the IC50 was > 80 µM (inactive).
Work on `CCC(C)(C)c1ccc(OCCCC[n+]2ccccc2)c(C(C)(C)CC)c1` yielded an IC50 of 8.65 µM.
In the case of `CN1C(=O)c2cccc3c(S(=O)(=O)Nc4ccccc4F)ccc1c23`, the IC50 is reported as 69.7 µM (inactive).
For `O=C(Nc1cccc(Oc2ccc3c(c2)C(=O)NC3=O)c1)c1cccs1`, the IC50 was 28.8 µM (inactive).
`COc1ccc(C(=O)Nc2nnc(SCC(=O)Nc3ccc(NC(C)=O)cc3)s2)c(OC)c1` was tested, and the IC50 was > 80 µM (inactive).
`COc1ccc(-c2nn(C)c(=O)c3ccccc23)cc1NS(C)(=O)=O` was tested, and the IC50 was 43.9 µM (inactive).
For `COc1ccc(/C=C2\SC(=O)N(CCCC(=O)Nc3ccc(C(=O)O)cc3)C2=O)cc1OC`, the IC50 was > 80 µM (inactive).
`CC1=CC(C)(C)Nc2ccc(OC(=O)CN3C(=O)c4ccccc4C3=O)cc21` gave an IC50 of 9.25 µM.
In the case of `Cc1ccc(-n2c(-c3ccccc3)c[n+]3c2CCc2ccccc2-3)c(C)c1`, the IC50 is reported as 2.15 µM.
With `COc1ccc(-c2ccc(OC)c([C@H]3[C@H]4C=CC[C@@H](C)[C@@H]4C(=O)N3Cc3ccccc3)c2)cc1` the IC50 was 55.5 µM (inactive).
For `COC(=O)C(C)Oc1cc(C)cc2oc(=O)c3c(c12)CCC3` (stereo not drawn), the IC50 was 28.6 µM (inactive).
For `Cc1nc2cc(-c3ccc(Cl)cc3)nn2c(C)c1CCC(=O)NCc1ccco1`, the IC50 was > 80 µM (inactive).
In the case of `CC1CCN(C(=O)CCCOc2cc(=O)n(C)c3ccccc23)CC1`, the IC50 is reported as > 80 µM (inactive).
Work on `CCOC(=O)c1cc2c(=O)n3ccccc3nc2n(CC(C)C)c1=NC(=O)c1c(-c2c(F)cccc2Cl)noc1C` yielded an IC50 of 5.33 µM.
Compound `O=C(CN1C(=O)c2ccccc2S1(=O)=O)c1ccccc1Cl` has an IC50 of 7 µM.
With `C[C@H]1CCC/C=C/[C@@H]2C[C@H](O)C[C@H]2[C@H](O)/C=C/C(=O)O1` the IC50 was 0.42 µM and 0.52 µM.
`Cn1c(=O)cc(OCCCC(=O)N2CCCCC2)c2ccccc21` was tested, and the IC50 was 60.2 µM (inactive).
For `COc1ccc(C(=O)Nc2nnc(Cc3cccs3)s2)cc1OC`, the IC50 was > 80 µM (inactive).
In the case of `O=[N+]([O-])c1ccc(Sc2cc[n+]([O-])c3ccccc23)c([N+](=O)[O-])c1`, the IC50 is reported as > 80 µM (inactive).
`Cn1c(=O)n(C)c2cc(/C=C3/NC(=O)N(Cc4ccccc4)C3=O)ccc21` was tested, and the IC50 was > 80 µM (inactive).
`Cc1[nH]c2ccccc2c1C(=O)CN1C(=O)NC2(CC(C)CC(C)(C)C2)C1=O` (stereo not drawn) was tested, and the IC50 was 43.3 µM (inactive).
`CNC(=O)c1cccn(Cc2ccc(C(F)(F)F)cc2)c1=O` was tested, and the IC50 was 35.5 µM (inactive).
For `Cc1noc(C)c1CSc1nc2[nH]ncc2c(=O)n1-c1ccccc1`, the IC50 was 7.74 µM.
`COc1ccc(/C=C2/SC(=S)N(CCC(=O)O)C2=O)cc1` was tested, and the IC50 was 24.3 µM (inactive).
For `O=C(CCCN1C(=O)/C(=C/c2ccccc2Cl)SC1=S)Nc1cccnc1`, the IC50 was 28.7 µM (inactive).
Compound `CC(C)(C)c1ccc(-n2ncc3c2CCCC3NC(=O)C2(C(N)=O)CC2)cc1` (stereo not drawn) has an IC50 of 0.34 µM.
In the case of `CC1CC(C)CN(S(=O)(=O)c2ccc(C(=O)NCCCn3ccnc3)cc2)C1` (stereo not drawn), the IC50 is reported as > 80 µM (inactive).
For `C(=N\Nc1nc(Nc2ccccc2)nc(N2CCOCC2)n1)/c1c[nH]c2ccccc12`, the IC50 was 53 µM (inactive).
For `Cc1ccc(C(=O)CSc2nnc(COc3cc(C)cc(C)c3)o2)cc1`, the IC50 was 24.9 µM (inactive).
Work on `Cc1nn(C(C)(C)C)c(C)c1/C=N/OC(=O)Nc1ccc(Cl)c(Cl)c1` yielded an IC50 of under 0.16 µM.
In the case of `COc1ccc(C(=O)Nc2ccccc2C(=O)NCc2ccco2)cc1OC`, the IC50 is reported as > 80 µM (inactive).
`CC(C)(C)c1ccc(-c2noc(CCC(=O)Nc3cccnc3)n2)cc1` showed an IC50 of 0.55 µM.
For `COCCNC(=O)CSCc1nc(-c2ccc(SC)cc2)oc1C`, the IC50 was 65.6 µM (inactive).
`CCC(=O)N1c2ccccc2[C@@H](N(C(C)=O)c2ccccc2)C[C@H]1C` was tested, and the IC50 was 39.2 µM (inactive).
`COc1cc(-c2cc(=O)c3c(O)c(OC)c(OC)c(OC)c3o2)cc(OC)c1OC` was tested, and the IC50 was > 80 µM (inactive).
`CCN(CC(=O)Nc1c(F)cccc1F)C(=O)c1cc([N+](=O)[O-])ccc1N1CCCCC1` was tested, and the IC50 was > 80 µM (inactive).
`CCc1ccc(/C=C2\SC(=S)N(CCCC(=O)Nc3ccccn3)C2=O)cc1` was tested, and the IC50 was > 80 µM (inactive).
For `Cc1csc(NC(=O)/C=C/c2ccc3c(c2)OCO3)n1`, the IC50 was > 80 µM (inactive).
For `Cc1c(CCC(=O)N2CCC(C(=O)O)CC2)c(=O)oc2cc3oc4c(c3cc12)CCCC4`, the IC50 was 12.8 µM.
With `Cc1ccccc1Nc1nc(Cl)c(C=O)s1` the IC50 was > 80 µM (inactive).
For `CC(C)c1ccc(/C=C2\SC(=S)N(CCC(=O)NCCCn3ccnc3)C2=O)cc1`, the IC50 was 50.2 µM (inactive).
In the case of `C=CCOc1ccc(/C=C2\SC(=S)N(CCC(=O)O)C2=O)cc1`, the IC50 is reported as 51.4 µM (inactive).
In the case of `N=c1ccn2c(n1)O[C@H]1[C@H](O)[C@@H](CO)O[C@H]12`, the IC50 is reported as > 80 µM (inactive).
In the case of `CCc1sc(C(=O)Nc2cccc(-n3cnnn3)c2)cc1C`, the IC50 is reported as > 80 µM (inactive).
With `CCOC(=O)Cc1csc(NC(=S)NC(=O)c2ccc(Cl)cc2)n1` the IC50 was > 80 µM (inactive).
With `CNC(=O)CSc1nc2nn(-c3ccccc3)c(=O)c-2c2n1CCCCC2` the IC50 was > 80 µM (inactive).
`Cc1ccc(C2(c3ccc(C)cc3)CC2C(=O)Nc2ccc([N+](=O)[O-])cc2O)cc1` (stereo not drawn) showed an IC50 of 4.59 µM.
